Here are results for 22 compounds from patent US4431815A, “1-[3-(2,4-Dichlorophenyl)propyl]imidazole and salts thereof” (Burroughs Wellcome Co., priority 1983, dated 1984).

Where two headings read alike, the source gives them in different places. Some results are limits rather than exact numbers.

Experiment [1] addresses T1, TXA2 synthetase (Equus caballus, UniProt A0A9L0T8T9).
T1 construct: labelled arachidonic acid substrate, thromboxane B2 measured by TLC
T1 sequence (A0A9L0T8T9 2-534): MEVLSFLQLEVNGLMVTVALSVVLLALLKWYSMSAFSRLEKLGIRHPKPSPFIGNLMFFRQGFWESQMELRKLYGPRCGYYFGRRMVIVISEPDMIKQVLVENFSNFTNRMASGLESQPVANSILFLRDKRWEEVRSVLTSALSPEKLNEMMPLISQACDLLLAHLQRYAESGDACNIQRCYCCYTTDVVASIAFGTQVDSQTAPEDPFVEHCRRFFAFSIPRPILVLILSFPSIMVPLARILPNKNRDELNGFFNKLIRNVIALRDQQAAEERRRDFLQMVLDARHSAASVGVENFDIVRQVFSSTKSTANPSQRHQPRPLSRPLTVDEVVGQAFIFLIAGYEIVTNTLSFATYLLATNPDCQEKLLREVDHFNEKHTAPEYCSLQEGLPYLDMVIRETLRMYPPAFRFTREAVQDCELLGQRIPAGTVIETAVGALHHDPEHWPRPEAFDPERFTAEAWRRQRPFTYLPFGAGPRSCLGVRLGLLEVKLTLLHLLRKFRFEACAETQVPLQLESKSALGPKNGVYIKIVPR
The experiment is described as follows: Inhibition of thromboxane (TXA2) synthetase in homogenised horse platelets, labelled arachidonic acid, thromboxane B2 measured by TLC. Format: biochemical. As to conditions: horse platelet homogenate, pH 7.4. The protocol:
(§1) Horse platelets were prepared from whole horse blood by differential centrifugation. Approximately 10^6 platelets were homogenised in 1 ml 100 mM Tris buffer pH 7.4. Various concentrations of active compound were added and the reaction sets incubated for 5 minutes at ambient temperature. To each tube was added 20 nM of arachidonic acid containing 10^6 DPM of labelled arachidonic acid and the tubes incubated for 3 minutes at 37° C. in a shaking water bath. After incubation the radioactive products were extracted from the acidified aqueous phase with ethyl acetate and after concentration resolved by thin layer chromatography on silica gel with chloroform/methanol/acetic acid/water (90:8:1:0.8) as a developing solvent. The amount of thromboxane produced was measured by scraping off the radioactive zone corresponding to thromboxane B2 and estimating the radioactivity in a liquid scintillation counter.
The concentration of active compound to reduce the enzyme activity by 50% (ED50) was established.
By the method of Biological results Example 7 above the ED50 and selectivity values were obtained for the compounds set out in Table B.

The test system of experiment [2] is PGE, PGF and PGD. Nature of the experiment: Selectivity: amount of PGE, PGF and PGD produced (anti-aggregating prostaglandins), horse platelets. Type of experiment: biochemical. As to conditions: horse platelet homogenate. The protocol: as §1, with “Various concentrations of active compound were added and the reaction sets incubated for 5 minutes at ambient temperature.” left out
The greater the selectivity, the more of the anti-aggregating prostaglandins are produced.
The ED50 and Selectivity results are shown in Table A in which 0 indicates no selectivity; + low selectivity: ++ medium selectivity; +++ high selectivity, and ++++ exceptionally high selectivity.

The subject of experiment [3] is platelet aggregation. The experiment is described as follows: Inhibition of platelet aggregation in vivo.
The test system of experiment [4] is platelet clumps. Nature of the experiment: Disaggregation of platelet clumps.
Experiment [5] relates to enzymic conversion of the endoperoxides (PGG2 and PGH2) to thromboxane A2 by platelet microsomes. As to conditions: Moncada et al., Prostaglandins 1977; cited from earlier work.
[6] abbreviates: Table B, read-out: ED50 (concentration of active compound to reduce the enzyme activity by 50%) (converted).

In the case of `Cc1cccc(-n2ccnc2)c1C` [1-(2,3-dimethylphenyl)imidazole], the IC50 in experiment [1] (setting [6]) is ~17.4 µM. Besides, the SELECTIVITY entry in experiment [2] (Table B) is “++”. For `Cc1cc(C)c(Cn2ccnc2)c(C)c1` [1-(2,4,6-Trimethylbenzyl)imidazole, 1-(2,4,6-trimethylbenzyl)imidazole], the SELECTIVITY result in experiment [2] (Table A) was “++”. Moreover, in experiment [3], the “inhibiting platelet aggregation in vivo” value was “capable of inhibiting platelet aggregation in vivo”. For the same compound, in experiment [4], the disaggregating platelet clumps result is “capable of disaggregating platelet clumps”. Turning to `Clc1ccc(Cn2ccnc2)c(Cl)c1` [1-(2,4-dichlorobenzyl)imidazole, 1-(2,4-Dichlorobenzyl)imidazole], in experiment [1] (setting [6]), the IC50 is 8.81 to 35.2 µM. In experiment [3], the “inhibiting platelet aggregation in vivo” value is listed as “capable of inhibiting platelet aggregation in vivo”. Besides, the disaggregating platelet clumps result in experiment [4] was “capable of disaggregating platelet clumps”. With `Clc1ccccc1Cn1ccnc1` [1-(2-chlorobenzyl)imidazole], the IC50 in experiment [1] (setting [6]) is 2.6 µM. In experiment [2] (Table B), the SELECTIVITY result is listed as “++”. For `c1ccc(CCn2ccnc2)cc1` [1-(2-phenylethyl)imidazole, 1-(2-Phenylethyl)imidazole] the same measures were 116 µM and “+”. `CC(Cn1ccnc1)c1ccccc1` (stereo not drawn) [1-(2-phenylpropyl)imidazole, 1-(2-Phenylpropyl)imidazole]: the IC50 in experiment [1] (setting [6]) was < 26.8 µM.

For the compound `Cc1ccc(Cn2ccnc2)cc1C` [1-(3,4-Dimethylbenzyl)imidazole], the SELECTIVITY entry in experiment [2] (Table A) is recorded as “++”. As for `Nc1cccc(Cn2ccnc2)c1` [1-(3-aminobenzyl)imidazole, 1-(3-Aminobenzyl)imidazole], in experiment [1] (setting [6]), the IC50 was ~57.7 µM. Besides, the SELECTIVITY result in experiment [2] (Table B) is “++”. The matching figures for `Brc1cccc(Cn2ccnc2)c1` [1-(3-bromobenzyl)imidazole, 1-(3-Bromobenzyl)imidazole]: 61.2 µM and “+++”.

Regarding `O=[N+]([O-])c1cccc(Cn2ccnc2)c1` [1-(3-nitrobenzyl)imidazole, 1-(3-Nitrobenzyl)imidazole], in experiment [1] (setting [6]), the IC50 was 271 µM. Same read-out and setting: in the case of `C(=Cc1ccccc1)Cn1ccnc1` [1-(3-phenylprop-2-enyl)imidazole, 1-(3-Phenylprop-2-enyl)imidazole] it was 92.3 µM. Regarding `c1ccc(CCCn2ccnc2)cc1` [1-(3-phenylpropyl)imidazole, 1-(3-Phenylpropyl)imidazole], the IC50 in experiment [1] (setting [6]) was 134 µM. Besides, in experiment [2] (Table B), the SELECTIVITY result is on record as “+”. Turning to `Brc1ccc(Cn2ccnc2)cc1` [1-(4-bromobenzyl)imidazole, 1-(4-Bromobenzyl)imidazole], the IC50 in experiment [1] (setting [6]) is 19.4 µM. Still for that read-out and setting: then `Fc1ccc(Cn2ccnc2)cc1` [1-(4-fluorobenzyl)imidazole, 1-(4-Fluorobenzyl)imidazole], with 159 µM. Regarding `CC(C)c1ccc(Cn2ccnc2)cc1` [1-(4-i-propylbenzyl)imidazole, 1-(4-i-Propylbenzyl)imidazole], the IC50 in experiment [1] (setting [6]) was 0.499 µM. Also, the SELECTIVITY in experiment [2] (Table B) is reported as 0. As to `Cc1ccc(Cn2ccnc2)cc1` [1-(4-methylbenzyl)imidazole, 1-(4-Methylbenzyl)imidazole], the IC50 in experiment [1] (setting [6]) is 174 µM. Also, the SELECTIVITY result in experiment [2] (Table B) is recorded as “+”. As to `Clc1ccc(C=CCn2ccnc2)c(Cl)c1` [1-[3-(2,4-Dichlorophenyl)prop-2-enyl]imidazole], in experiment [2] (Table A), the SELECTIVITY entry is recorded as “+”.

For the compound `Clc1ccc(CCCn2ccnc2)c(Cl)c1` [1-[3-(2,4-Dichlorophenyl)propyl]imidazole], the IC50 in experiment [1] (Table A, read-out: ED50 (concentration of active compound to reduce the enzyme activity by 50%) (converted)) is 1.96 µM; in experiment [1] (setting [6]), 2.35 µM. In addition, the SELECTIVITY result in experiment [2] (Table A) and in experiment [2] (Table B) was “++” in each case. For the same compound, the “inhibiting platelet aggregation in vivo” value in experiment [3] is on record as “capable of inhibiting platelet aggregation in vivo”. Further, the disaggregating platelet clumps entry in experiment [4] is “capable of disaggregating platelet clumps”. `Clc1cccc(Cl)c1C=CCn1ccnc1` [1-[3-(2,6-Dichlorophenyl)prop-2-enyl]imidazole]: the SELECTIVITY result in experiment [2] (Table A) is “+”.

On to `c1ccc(Cn2ccnc2)cc1` [1-benzylimidazole, 1-Benzylimidazole], for which the IC50 in experiment [1] (read-out: ED50 (concentration of active compound to reduce the enzyme activity by 50%), Table B) is 31.6 µM. Also, the SELECTIVITY entry in experiment [2] (Table B) was “+++”. Also, the “inhibiting platelet aggregation in vivo” value in experiment [3] is reported as “capable of inhibiting platelet aggregation in vivo”. Besides, the disaggregating platelet clumps result in experiment [4] is reported as “capable of disaggregating platelet clumps”. `Cn1ccnc1` [1-methylimidazole]: in experiment [5], the “inhibition of the enzymic conversion of endoperoxides to thromboxane A2” value was “some degree of inhibition”.

As for `c1c[nH]cn1` [Imidazole], in experiment [5], the “inhibition of the enzymic conversion of endoperoxides to thromboxane A2” value is given as “some degree of inhibition”.
